Test results: patent US20100040628A1 (OsteoGeneX, Inc, priority 2008, published 2010)

Assays:
Wnt pathway = Wnt pathway modulation to promote bone growth (FIG. 1); conditions: doses of 2.5 ng (low), 60 ng (medium), 125 ng (high) and 1250 ng (very high)
Description: (§1) For example, the mouse test animal is treated with a predetermined dose of a SOST antagonist candidate for a complete dosing schedule. A control mouse is treated with a control solution, preferably a non-irritating buffer solution or other carrier. Once the dosing schedule has been completed, both test and control animals are examined with sacrifice using micro-CT to determine the quantity of bone formation present.

mouse = experiment: Mouse bone formation assay, micro-CT examination of test vs control animals; format: in vivo; conditions: predetermined dose for a complete dosing schedule, vs control solution
Description: Compounds useful in the methods of the present invention can be identified via a variety of methods known to one of skill in the art. Several exemplary methods for identifying such antagonists are described herein, including cell-based and in vitro techniques (Journal of Bone and Mineral Research 2006, 21(11), 1738-1749). A general method of identifying SOST antagonists involves evaluating the effects of antagonist candidates on bone formation under controlled conditions. Preferably bone formation is determined using micro-CT techniques on live animals. Preferred animals include rodents, more preferred are primates. Femur, tibia and vertebrae bones are particularly useful subjects for such study.
Briefly, the test animal is treated with a predetermined dose of a SOST antagonist candidate. […]
Once the dosing schedule has been completed, both test and control animals are examined to determine the quantity of bone formation present. […] Where necessary, levels of bone formation can be calculated by determining the volume of bone formation present in each animal. […]
as §1, with “A control mouse is treated with a control solution, preferably a non-irritating buffer solution or other carrier.” left out

C57BL/6 mice = experiment: Bone growth with indoprofen: pQCT analysis on the femur after 30 days of daily treatment; format: in vivo, mouse; conditions: four month old male C57BL/6 mice, 2 mg/kg i.p. daily for 30 days, FIG. 2
Description: Four month old male C57BL/6 mice were treated daily with saline vehicle or the sclerostin inhibitor of indoprofen at 2 mg/kg (via i.p) for 30 days. Study endpoints included measurement of trabecular bone mineral content and bone mineral density by pQCT analysis on the femur.

## CC(C(=O)O)c1ccc(N2Cc3ccccc3C2=O)cc1 (stereo not shown) [indoprofen]
Wnt pathway
  modulation of the Wnt pathway to promote bone growth: modulating the Wnt pathway to promote bone growth
mouse
  promotion of bone growth (quantity of bone formation by micro-CT): promoting bone growth
C57BL/6 mice; pQCT on femur
  increase for trabecular bone mineral density (BMD): greater than 2%
C57BL/6 mice; pQCT
  increase in bone mineral content (BMC) for the femur over baseline controls: greater than 6%
